PMC6222927, “Aminobenzosuberone Scaffold as a Modular Chemical Tool for the Inhibition of Therapeutically Relevant M1 Aminopeptidases” (Molecules : A Journal of Synthetic Chemistry and Natural …, 2018)
Where two headings read alike, the source gives them in different places. Marks after values point to notes of the source that are not given here.

How the values were obtained:
P. falciparum rPfAM1 = target: T1, P. falciparum rPfAM1 (Plasmodium falciparum, UniProt O96935); test: biochemical; assay type: biochemical
T1 construct: made in house; host or cells: Escherichia coli Rosetta 2 (DE3)
T1 sequence (O96935 1-1085): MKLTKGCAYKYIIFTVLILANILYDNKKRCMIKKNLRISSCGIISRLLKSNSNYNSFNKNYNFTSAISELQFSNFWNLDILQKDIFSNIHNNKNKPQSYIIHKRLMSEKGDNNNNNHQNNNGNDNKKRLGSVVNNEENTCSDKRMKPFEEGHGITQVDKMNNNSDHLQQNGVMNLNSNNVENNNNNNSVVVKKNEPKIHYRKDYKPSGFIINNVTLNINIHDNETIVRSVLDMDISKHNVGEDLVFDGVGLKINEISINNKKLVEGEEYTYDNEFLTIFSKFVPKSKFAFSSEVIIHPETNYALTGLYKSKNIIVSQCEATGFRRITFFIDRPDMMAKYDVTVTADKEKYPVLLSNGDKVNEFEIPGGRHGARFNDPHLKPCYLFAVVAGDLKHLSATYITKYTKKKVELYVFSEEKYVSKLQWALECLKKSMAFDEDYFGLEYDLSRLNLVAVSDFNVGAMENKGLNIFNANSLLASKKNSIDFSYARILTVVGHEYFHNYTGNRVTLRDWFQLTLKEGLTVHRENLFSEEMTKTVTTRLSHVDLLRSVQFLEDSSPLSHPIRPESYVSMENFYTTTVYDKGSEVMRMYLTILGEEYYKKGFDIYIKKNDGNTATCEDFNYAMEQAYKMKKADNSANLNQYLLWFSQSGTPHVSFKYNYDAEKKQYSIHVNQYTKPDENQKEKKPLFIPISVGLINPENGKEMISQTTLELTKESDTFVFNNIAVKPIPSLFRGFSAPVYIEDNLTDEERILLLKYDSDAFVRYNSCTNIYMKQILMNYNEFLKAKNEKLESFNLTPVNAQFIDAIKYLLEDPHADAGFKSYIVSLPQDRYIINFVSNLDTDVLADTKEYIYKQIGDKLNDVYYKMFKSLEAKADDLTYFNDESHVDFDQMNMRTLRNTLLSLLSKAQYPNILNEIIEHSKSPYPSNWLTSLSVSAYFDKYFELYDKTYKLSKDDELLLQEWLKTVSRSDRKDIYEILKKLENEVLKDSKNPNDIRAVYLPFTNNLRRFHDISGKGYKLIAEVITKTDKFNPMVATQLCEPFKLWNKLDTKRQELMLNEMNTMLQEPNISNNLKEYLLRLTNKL
Procedure: Initial velocities were measured with increasing concentrations of inhibitors and Ki values were determined by Dixon plots in triplicate.

E. coli rEcPepN = E. coli rEcPepN (Escherichia coli, UniProt P04825); test: rEcPepN inhibition, Leu-pNA substrate, Dixon method; assay type: biochemical
Procedure: Enzyme activity assays were carried out in 10 mM Tris-HCl buffer at pH 7.5 with 150 mM NaCl, enzyme, 100 µM substrate (Leu-pNA) in a 100 μL reaction at 37 °C. The absorbance was read at 405 nm. Concentrations ranging from 1 nM to 100 μM of inhibitors (dissolved in DMSO) were incubated with each of the enzymes ([…]) for 30 min at 37 °C in a 96 well plate. After addition of the substrate, immediate increase in absorption was measured. All inhibition assays were performed in triplicates and initial velocities were measured. Percentage inhibition and log values of inhibitor concentrations were plotted using SigmaPlot to determine IC50 values. Ki values were determined by the Dixon method. The assay consists of reaction buffer, enzyme and varied concentrations of Leu-pNA (25, 50, 100, 200 and 400 µM). […] Data were plotted as 1/rate versus inhibitor concentration for each substrate concentration and a linear fit was calculated by non-linear regression using SigmaPlot12.5. All the reactions were performed in triplicates, SD values were reported.

pAPN from porcine kidney = conditions: Dixon plots; cited from earlier work
[1] = target: human leukotriene A4 hydrolase (rHsLTA4H); design: method as in PMID 21843945; conditions: cited from earlier work; for Ki: ref 58; for % of inhibition of rHsLTA4H: determined at 100 µM
[2] = target: aminopeptidase from A. proteolytica (AAP); design: method as in PMID 21843945; conditions: ref 58; cited from earlier work
[3] = Octanol/water partition coefficient (logD7.4) by reversed-phase HPLC; conditions: pH 7.4
Procedure: The flow was 0.9 mL/min. The aminobenzosuberone derivatives were dissolved at 0.4 µM in methanol. The standards were also dissolved in methanol. Column void volume was estimated from the retention time of uracil, which was included as a non-retained internal reference with each injection.

[4] = target: T2, human endoplasmic reticulum aminopeptidase 1 (rHsERAP1) (Homo sapiens, UniProt Q9NZ08); test: rHsERAP1 inhibition, L-AMC fluorigenic substrate; assay type: biochemical; conditions: 50 µM L-AMC
T2 construct: made in house; host or cells: Hi5 insect cells (baculovirus produced in sf9)
Procedure: (§1) The enzymatic activity of HsERAP1, HsERAP2 and HsIRAP was determined by following the time-dependent increase in fluorescence at 460 nm (excitation: 380 nm) of the fluorigenic substrates L-Leucine-7-amido-4-methyl coumarin (L-AMC; Sigma, Darmstatd, Germany) for HsERAP1 and HsIRAP and L-arginyl-7-amido-4-methyl coumarin (R-AMC; Sigma) for HsERAP2. […] The reaction was followed for 10 min at room temperature and the remaining enzymatic activity was calculated by measuring the slope of the time course.

[5] = target: T3, human endoplasmic reticulum aminopeptidase 2 (rHsERAP2) (Homo sapiens, UniProt Q6P179); test: rHsERAP2 inhibition, R-AMC fluorigenic substrate; assay type: biochemical; conditions: 50 µM R-AMC
T3 construct: made in house; host or cells: Hi5 insect cells (baculovirus produced in sf9)
Procedure: as §1

[6] = target: human puromycine sensitive aminopeptidase (rHsPSA) (Homo sapiens, UniProt P55786); test: rHsPSA inhibition, Leu-pNA substrate, Dixon method; assay type: biochemical; conditions: triplicate, SD
Procedure: Enzyme activity assays were carried out in 10 mM Tris-HCl buffer at pH 7.5 with 150 mM NaCl, enzyme, 100 µM substrate (Leu-pNA) in a 100 μL reaction at 37 °C. The absorbance was read at 405 nm. Concentrations ranging from 1 nM to 100 μM of inhibitors (dissolved in DMSO) were incubated with each of the enzymes ([…]) for 30 min at 37 °C in a 96 well plate. After addition of the substrate, immediate increase in absorption was measured. All inhibition assays were performed in triplicates and initial velocities were measured. Percentage inhibition and log values of inhibitor concentrations were plotted using SigmaPlot to determine IC50 values. Ki values were determined by the Dixon method. The assay consists of reaction buffer, enzyme and varied concentrations of Leu-pNA (25, 50, 100, 200 and 400 µM). […]. All the reactions were performed in triplicates, SD values were reported.

[7] = target: T4, human Leucyl-cystinyl aminopeptidase (rHsIRAP) (Homo sapiens, UniProt Q9UIQ6); test: rHsIRAP inhibition, L-AMC fluorigenic substrate; assay type: biochemical
T4 construct: made in house; host or cells: Hi5 insect cells (baculovirus produced in sf9)
Procedure: The enzymatic activity of HsERAP1, HsERAP2 and HsIRAP was determined by following the time-dependent increase in fluorescence at 460 nm (excitation: 380 nm) of the fluorigenic substrates L-Leucine-7-amido-4-methyl coumarin (L-AMC; Sigma, Darmstatd, Germany) for HsERAP1 and HsIRAP and L-arginyl-7-amido-4-methyl coumarin (R-AMC; Sigma) for HsERAP2. […]. The reaction was followed for 10 min at room temperature and the remaining enzymatic activity was calculated by measuring the slope of the time course. […]

P. falciparum rPfAM17 = target: T5, P. falciparum rPfAM17 (Plasmodium falciparum, UniProt Q8IL11); test: rPfAM17 inhibition, Leu-pNA substrate, Dixon plots; assay type: biochemical
T5 construct: made in house; host or cells: Escherichia coli Rosetta 2 (DE3)
T5 sequence (Q8IL11 1-605): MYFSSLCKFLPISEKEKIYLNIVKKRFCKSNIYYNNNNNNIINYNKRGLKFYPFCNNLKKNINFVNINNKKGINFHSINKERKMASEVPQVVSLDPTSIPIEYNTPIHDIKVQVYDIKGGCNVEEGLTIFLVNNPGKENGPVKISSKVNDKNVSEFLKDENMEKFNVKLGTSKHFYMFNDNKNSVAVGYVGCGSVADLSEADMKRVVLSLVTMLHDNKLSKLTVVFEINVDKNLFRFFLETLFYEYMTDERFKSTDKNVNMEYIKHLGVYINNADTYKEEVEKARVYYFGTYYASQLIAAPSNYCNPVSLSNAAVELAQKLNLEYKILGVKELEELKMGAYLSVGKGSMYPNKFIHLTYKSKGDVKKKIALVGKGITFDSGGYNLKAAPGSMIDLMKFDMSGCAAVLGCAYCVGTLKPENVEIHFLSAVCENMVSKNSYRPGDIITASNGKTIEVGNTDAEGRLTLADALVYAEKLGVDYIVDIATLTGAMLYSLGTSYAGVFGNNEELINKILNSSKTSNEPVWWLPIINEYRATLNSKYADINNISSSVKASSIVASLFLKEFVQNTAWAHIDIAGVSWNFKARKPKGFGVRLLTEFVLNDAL
Procedure: Tests were carried out on HP/Agilent UV-Visible diode array spectrophotometer 8453 (HP/Agilent, Santa Clara, CA, USA), at 30 °C in Tris HCl 50 mM pH 7.4 for rPfAM1 and pH 8 for rPfAM17, with a final DMSO concentration of 1%. […]. […] Initial velocities were measured with increasing concentrations of inhibitors and Ki values were determined by Dixon plots in triplicate.

[8] = target: mammalian aminopeptidase N (mAPN); conditions: cited from earlier work
[9] = target: P. falciparum (PfAM1) M1 aminopeptidase; conditions: cited from earlier work
[10] = target: P. falciparum M17 aminopeptidase (PfAM17); conditions: ref 45; cited from earlier work
[11] = target: human puromycine sensitive aminopeptidase (HsPSA); conditions: cited from earlier work
[12] = tested on: E. coli (EcPepN) M1 aminopeptidase; conditions: ref 49; cited from earlier work
[13] = target: human aminopeptidase A (HsAPA); conditions: ref 50; cited from earlier work
[14] = Dixon plots, triplicate, read-out: Ki rPfAM1
[15] = 50 µM L-AMC, read-out: IC50 rHsIRAP

T2 sequence (Q9NZ08 whole entry): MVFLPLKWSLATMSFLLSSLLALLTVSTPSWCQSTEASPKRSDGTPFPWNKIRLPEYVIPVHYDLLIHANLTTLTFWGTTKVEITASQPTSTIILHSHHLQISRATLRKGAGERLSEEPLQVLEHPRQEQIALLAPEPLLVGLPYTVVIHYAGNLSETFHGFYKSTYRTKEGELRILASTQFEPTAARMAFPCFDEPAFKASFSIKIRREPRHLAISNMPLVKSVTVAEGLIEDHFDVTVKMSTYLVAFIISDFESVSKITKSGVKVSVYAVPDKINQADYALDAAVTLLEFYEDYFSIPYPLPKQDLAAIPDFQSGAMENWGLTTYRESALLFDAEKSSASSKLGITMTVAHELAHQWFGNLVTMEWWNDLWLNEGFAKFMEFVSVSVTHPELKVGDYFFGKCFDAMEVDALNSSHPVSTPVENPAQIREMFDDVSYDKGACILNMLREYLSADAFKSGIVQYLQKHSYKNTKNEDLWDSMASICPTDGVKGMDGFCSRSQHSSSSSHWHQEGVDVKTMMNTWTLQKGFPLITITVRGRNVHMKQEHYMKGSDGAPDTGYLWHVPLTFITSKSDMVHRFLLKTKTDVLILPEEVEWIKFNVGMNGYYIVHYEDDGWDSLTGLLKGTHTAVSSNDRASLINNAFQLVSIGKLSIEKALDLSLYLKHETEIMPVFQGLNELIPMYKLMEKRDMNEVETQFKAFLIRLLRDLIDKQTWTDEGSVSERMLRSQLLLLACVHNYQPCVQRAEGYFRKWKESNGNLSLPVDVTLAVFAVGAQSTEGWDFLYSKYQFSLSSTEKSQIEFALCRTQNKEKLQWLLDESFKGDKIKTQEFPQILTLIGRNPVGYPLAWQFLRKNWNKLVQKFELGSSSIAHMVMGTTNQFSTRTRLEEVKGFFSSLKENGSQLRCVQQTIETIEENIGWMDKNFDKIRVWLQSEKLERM
Chain of E. coli rEcPepN (P04825 whole entry): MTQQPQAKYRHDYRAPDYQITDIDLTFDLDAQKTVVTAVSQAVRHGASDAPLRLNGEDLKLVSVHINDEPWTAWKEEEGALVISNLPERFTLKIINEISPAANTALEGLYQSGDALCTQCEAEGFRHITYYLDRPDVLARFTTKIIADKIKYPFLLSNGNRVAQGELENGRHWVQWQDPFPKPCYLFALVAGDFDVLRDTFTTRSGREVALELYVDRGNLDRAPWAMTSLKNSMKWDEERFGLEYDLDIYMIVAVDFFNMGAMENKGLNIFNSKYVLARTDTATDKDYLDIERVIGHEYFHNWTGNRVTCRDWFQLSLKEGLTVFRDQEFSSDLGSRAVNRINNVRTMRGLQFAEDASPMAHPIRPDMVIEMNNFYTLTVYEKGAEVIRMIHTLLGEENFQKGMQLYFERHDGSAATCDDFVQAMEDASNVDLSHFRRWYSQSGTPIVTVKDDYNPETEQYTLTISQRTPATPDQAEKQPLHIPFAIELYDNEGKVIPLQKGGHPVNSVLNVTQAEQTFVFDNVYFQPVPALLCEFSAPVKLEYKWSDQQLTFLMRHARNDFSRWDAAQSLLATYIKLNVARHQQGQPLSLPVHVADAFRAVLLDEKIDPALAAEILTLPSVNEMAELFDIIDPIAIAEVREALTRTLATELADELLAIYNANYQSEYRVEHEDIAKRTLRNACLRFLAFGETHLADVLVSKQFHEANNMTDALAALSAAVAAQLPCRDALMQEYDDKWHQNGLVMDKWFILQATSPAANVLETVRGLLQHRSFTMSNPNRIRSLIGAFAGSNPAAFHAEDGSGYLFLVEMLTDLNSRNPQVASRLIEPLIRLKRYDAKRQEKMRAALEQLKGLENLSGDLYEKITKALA
T4 sequence (Q9UIQ6 155-1025 limits assumed): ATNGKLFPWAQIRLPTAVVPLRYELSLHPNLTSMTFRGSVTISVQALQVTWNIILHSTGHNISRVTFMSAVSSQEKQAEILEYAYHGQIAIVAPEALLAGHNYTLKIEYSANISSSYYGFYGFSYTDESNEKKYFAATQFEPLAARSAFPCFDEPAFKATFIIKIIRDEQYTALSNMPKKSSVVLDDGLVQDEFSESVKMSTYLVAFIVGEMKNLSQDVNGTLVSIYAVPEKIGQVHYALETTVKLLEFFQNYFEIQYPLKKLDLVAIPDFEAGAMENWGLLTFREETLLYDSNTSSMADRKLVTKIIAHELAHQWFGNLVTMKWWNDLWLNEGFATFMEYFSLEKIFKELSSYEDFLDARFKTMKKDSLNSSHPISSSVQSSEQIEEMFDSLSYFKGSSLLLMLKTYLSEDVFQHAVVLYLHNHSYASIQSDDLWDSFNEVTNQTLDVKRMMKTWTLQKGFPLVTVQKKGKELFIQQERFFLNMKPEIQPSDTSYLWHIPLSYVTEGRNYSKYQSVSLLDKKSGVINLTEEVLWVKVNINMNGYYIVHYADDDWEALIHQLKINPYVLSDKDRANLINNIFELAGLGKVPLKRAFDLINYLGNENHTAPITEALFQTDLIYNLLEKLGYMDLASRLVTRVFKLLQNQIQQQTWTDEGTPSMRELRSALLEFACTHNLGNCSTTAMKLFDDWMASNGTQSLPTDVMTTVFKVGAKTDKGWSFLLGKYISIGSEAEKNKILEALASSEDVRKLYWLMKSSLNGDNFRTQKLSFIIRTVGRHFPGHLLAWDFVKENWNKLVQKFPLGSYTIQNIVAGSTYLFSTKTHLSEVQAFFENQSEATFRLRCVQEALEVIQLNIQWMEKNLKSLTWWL
T3 sequence (Q6P179 whole entry): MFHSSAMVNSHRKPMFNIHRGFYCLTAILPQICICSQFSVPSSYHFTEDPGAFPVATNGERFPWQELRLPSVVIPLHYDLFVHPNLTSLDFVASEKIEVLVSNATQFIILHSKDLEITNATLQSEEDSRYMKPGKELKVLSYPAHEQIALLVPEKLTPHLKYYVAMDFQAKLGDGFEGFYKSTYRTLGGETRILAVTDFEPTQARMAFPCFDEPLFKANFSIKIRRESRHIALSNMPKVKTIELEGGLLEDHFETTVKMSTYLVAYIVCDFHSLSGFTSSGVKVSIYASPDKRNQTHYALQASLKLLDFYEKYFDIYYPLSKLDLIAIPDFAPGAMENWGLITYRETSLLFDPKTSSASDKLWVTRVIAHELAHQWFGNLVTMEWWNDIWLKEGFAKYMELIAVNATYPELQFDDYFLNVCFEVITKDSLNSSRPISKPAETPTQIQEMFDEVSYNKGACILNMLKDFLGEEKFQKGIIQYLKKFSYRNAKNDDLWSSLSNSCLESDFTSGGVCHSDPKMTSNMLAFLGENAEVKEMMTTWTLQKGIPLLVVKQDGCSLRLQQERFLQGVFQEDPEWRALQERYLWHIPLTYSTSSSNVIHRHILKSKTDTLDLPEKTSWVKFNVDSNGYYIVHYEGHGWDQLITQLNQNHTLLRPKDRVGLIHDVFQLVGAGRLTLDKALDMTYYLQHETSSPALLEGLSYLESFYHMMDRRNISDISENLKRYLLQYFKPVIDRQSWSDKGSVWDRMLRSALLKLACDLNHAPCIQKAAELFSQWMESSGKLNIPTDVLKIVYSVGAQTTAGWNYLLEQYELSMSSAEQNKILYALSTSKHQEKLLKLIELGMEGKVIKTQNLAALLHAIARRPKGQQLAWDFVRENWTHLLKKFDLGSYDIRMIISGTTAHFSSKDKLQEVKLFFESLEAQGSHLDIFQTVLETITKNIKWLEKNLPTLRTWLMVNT
Chain of human puromycine sensitive aminopeptidase (rHsPSA) (P55786 whole entry): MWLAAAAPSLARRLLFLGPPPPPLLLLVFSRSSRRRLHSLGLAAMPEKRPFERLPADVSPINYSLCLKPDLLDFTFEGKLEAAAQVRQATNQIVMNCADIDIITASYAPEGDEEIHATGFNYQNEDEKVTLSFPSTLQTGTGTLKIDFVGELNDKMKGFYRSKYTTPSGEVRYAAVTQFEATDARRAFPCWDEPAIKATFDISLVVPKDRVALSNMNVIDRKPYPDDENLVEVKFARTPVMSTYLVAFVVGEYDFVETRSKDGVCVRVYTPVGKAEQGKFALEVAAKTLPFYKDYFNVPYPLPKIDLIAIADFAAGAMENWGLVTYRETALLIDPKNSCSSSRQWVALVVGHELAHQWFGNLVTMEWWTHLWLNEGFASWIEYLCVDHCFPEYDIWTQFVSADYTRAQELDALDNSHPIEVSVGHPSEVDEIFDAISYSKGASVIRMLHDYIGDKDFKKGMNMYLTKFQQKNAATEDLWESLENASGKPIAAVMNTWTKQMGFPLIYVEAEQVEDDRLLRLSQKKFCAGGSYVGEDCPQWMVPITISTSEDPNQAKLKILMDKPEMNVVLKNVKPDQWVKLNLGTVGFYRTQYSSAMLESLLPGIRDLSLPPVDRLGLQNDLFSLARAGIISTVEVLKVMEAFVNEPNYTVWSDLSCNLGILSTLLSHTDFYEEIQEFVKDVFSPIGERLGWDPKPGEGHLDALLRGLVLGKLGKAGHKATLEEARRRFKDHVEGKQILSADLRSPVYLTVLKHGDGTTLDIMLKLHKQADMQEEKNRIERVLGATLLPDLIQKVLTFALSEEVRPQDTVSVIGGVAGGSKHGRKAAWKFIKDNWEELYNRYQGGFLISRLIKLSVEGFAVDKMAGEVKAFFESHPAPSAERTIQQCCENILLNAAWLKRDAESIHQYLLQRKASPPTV

NC1CCc2ccccc2CC1=O (centres unmarked) [21a]
Ki (P. falciparum rPfAM1; [14]): 15 ± 0.07 µM
Ki (E. coli rEcPepN): 50 ± 3 µM
Ki (pAPN from porcine kidney): 1000 nM
Ki [1]: > 100 µM
Ki [2]: > 100 µM
chromatographic logD [3]: 0.54

NC1CCc2cccc(Br)c2CC1=O (centres unmarked) [21b]
Ki (E. coli rEcPepN): 1.07 ± 0.11 µM
IC50 [4]: 120 ± 11 µM
IC50 [5]: 49 ± 3.8 µM
Ki [6]: 1.63 ± 0.08 µM
IC50 [7, 15]: 1 ± 0.08 µM
Ki (P. falciparum rPfAM17): > 100 µM
Ki (pAPN from porcine kidney): 40 nM
Ki [1]: > 100 µM
Ki [2]: > 100 µM
chromatographic logD [3]: 1.28

NC1CCc2c(cccc2-c2ccccc2)CC1=O (centres unmarked) [21f]
Ki (P. falciparum rPfAM1): 2 ± 0.07 µM
IC50 [4]: 137 ± 5 µM
IC50 [5]: > 200 µM
IC50 [7, 15]: 2.2 ± 0.13 µM
Ki (P. falciparum rPfAM17): > 100 µM
Ki (pAPN from porcine kidney): 250 nM
Ki [1]: > 100 µM
Ki [2]: > 100 µM
chromatographic logD [3]: 2.22

NC1CCc2c(ccc3ccccc23)CC1=O (centres unmarked) [21g]
Ki (P. falciparum rPfAM1; [14]): 15 ± 1 µM
Ki (pAPN from porcine kidney): 40 nM
Ki [1]: > 100 µM
Ki [2]: > 100 µM
chromatographic logD [3]: 1.67

NC1CCc2c(Br)ccc(Br)c2CC1=O (centres unmarked) [21h]
Ki (P. falciparum rPfAM1; [14]): 0.005 ± 0.001 µM
IC50 [7]: 0.034 ± 0.001 µM
Ki ([7]; read-out: Ki HsIRAP): 0.034 µM
chromatographic logD [3]: 2.48

NC1CCc2c(Br)ccc(-c3ccccc3)c2CC1=O (centres unmarked) [21i]
Ki (P. falciparum rPfAM1): 0.03 ± 0.005 µM
Ki (E. coli rEcPepN; Dixon method, triplicate, SD, read-out: Ki rEcPepN): 0.05 ± 0.003 µM
times more potent than 21c on EcPepN (E. coli rEcPepN; ratio of Ki values, 21i versus 21c): 3
IC50 [4]: 1.6 ± 0.1 µM
IC50 [5]: 0.39 ± 0.013 µM
Ki [6]: 0.021 ± 0.003 µM
IC50 [7]: 0.12 ± 0.015 µM
Ki (pAPN from porcine kidney): 0.06 nM
% of inhibition of rHsLTA4H [1]: 68% ^#
Ki [2]: 39 µM
chromatographic logD [3]: 3.12

NC1CCc2c(-c3ccccc3)ccc(Br)c2CC1=O (centres unmarked) [21j]
Ki (P. falciparum rPfAM1; [14]): 4 ± 0.7 µM
Ki (pAPN from porcine kidney): 70 nM
% of inhibition of rHsLTA4H [1]: 54% ^#
Ki [2]: > 100 µM
chromatographic logD [3]: 3.06

NC(CCc1ccccc1)P(=O)(O)CC(Cc1ccccc1)C(=O)O (centres unmarked) [compound 2]
Ki ([8]; ref 46): 0.002 µM
Ki ([9]; ref 47): 0.079 µM
Ki [10]: 0.013 µM

CCOC(=O)C1=C(Nc2ccccc2)CC(c2ccccn2)N(c2ccccc2)C1c1cccnc1 (centres unmarked) [compound 4]
Ki ([8]; ref 49): > 100 µM
IC50 ([11]; ref 49): 1.79 µM
Ki [12]: > 100 µM
Ki ([9]; ref 49): > 100 µM

N[C@H](CS)CCC(=O)O [compound 6]
Ki [13]: 0.14 µM

O=C(CCc1ccc(F)cc1)/C(=C/c1ccccc1)C(=O)NO [compound 10]
IC50 ([8]; ref 35, 53): 1.37 µM
IC50 ([9]; ref 35, 53): 0.006 µM

CCc1cccc(CC)c1N1C(=O)c2cccc3cccc(c23)C1=O [compound 12]
Ki ([8]; ref 55): > 100 µM
IC50 ([11]; ref 55): 0.8 µM
